In the supplement of paper PMC10307832:

Columns and labels:
Test in all cases: relative viability (nuclei count vs DMSO), 5 days (fraction); higher = more cells survive
[1] = compound: CN1C=C(C2=CC=CC=C21)/C=C\3/C4=C(C=CC=N4)NC3=O + CC(=O)Nc1cccc(-n2c(=O)n(C3CC3)c(=O)c3c(Nc4ccc(I)cc4F)n(C)c(=O)c(C)c32)c1 [Trametinib] (partner 0.02 µM)
Outline: (§1)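 A single step with final 0.05% Triton X-100, 1% formaldehyde and 1 ug/ml Hoechst fixed the cells and stained nuclei 5 days after treatment. Lung cancer cell lines in 1536-well plates had been treated by pin tool the day after seeding with one drug alone or a fixed anchor-drug dose plus five library-drug doses (not always all listed) in √10 steps, and nuclei were counted on 4× images. Relative viability is the ratio of nuclei in treated wells to nuclei in vehicle wells, taken as the median of duplicate plates.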

[2] = compound: CN1C=C(C2=CC=CC=C21)/C=C\3/C4=C(C=CC=N4)NC3=O + C[C@@H](Oc1cc(-c2cnn(C3CCNCC3)c2)cnc1N)c1c(Cl)ccc(F)c1Cl [Crizotinib] (partner 1 µM)
Outline: as §1

Trametinib + Palbociclib = compound: CC(=O)Nc1cccc(-n2c(=O)n(C3CC3)c(=O)c3c(Nc4ccc(I)cc4F)n(C)c(=O)c(C)c32)c1 [Trametinib] + CC(=O)c1c(C)c2cnc(Nc3ccc(N4CCNCC4)cn3)nc2n(C2CCCC2)c1=O [Palbociclib] (partner 0.5 µM)
Outline: as §1

[3] = compound: CN1C=C(C2=CC=CC=C21)/C=C\3/C4=C(C=CC=N4)NC3=O + CC(=O)c1c(C)c2cnc(Nc3ccc(N4CCNCC4)cn3)nc2n(C2CCCC2)c1=O [Palbociclib] (partner 0.5 µM)
Outline: as §1

## UMC-11
[1]; first compound 0.02 µM
  relative viability: 0.638
[1]; first compound 0.06325 µM
  relative viability: 0.549
[1]; first compound 0.2 µM
  relative viability: 0.552
[1]; first compound 0.6325 µM
  relative viability: 0.671
[1]; first compound 2 µM
  relative viability: 0.78
[2]; first compound 0.02 µM
  relative viability: 0.448
[2]; first compound 0.06325 µM
  relative viability: 0.543
[2]; first compound 0.2 µM
  relative viability: 0.578
[2]; first compound 0.6325 µM
  relative viability: 0.855
[2]; first compound 2 µM
  relative viability: 0.786
Trametinib + Palbociclib; first compound 0.0025 µM
  relative viability: 0.32
Trametinib + Palbociclib; first compound 0.007906 µM
  relative viability: 0.333
Trametinib + Palbociclib; first compound 0.25 µM
  relative viability: 0.312
[3]; first compound 0.02 µM
  relative viability: 0.3
[3]; first compound 0.06325 µM
  relative viability: 0.318
[3]; first compound 0.2 µM
  relative viability: 0.358
[3]; first compound 0.6325 µM
  relative viability: 0.344
[3]; first compound 2 µM
  relative viability: 0.332
